How the values were obtained:
[1] = for viscosity: Falling or rolling sphere viscometry; for speed of sound: Single path-length method
[2] = refractive index (Na D-line) (dimensionless); conditions: 100 kPa, Liquid, Standard Abbe refractometry

CCCC(=O)[O-].CN(C)C(=[NH2+])N(C)C [1,1,3,3-tetramethylguanidinium butanoate]
[1], 100 kPa, Liquid
Conditions | speed of sound [m/s] | viscosity [mPa·s]
293.15 K | 1593.6 | 2480
298.15 K | 1576.5 | 1638
303.15 K | 1559.4 | 1049
308.15 K | 1542.3 | 694.1
313.15 K | 1525.1 | 453.1
318.15 K | 1508 | 318.2
323.15 K | 1490.9 | 223.5
328.15 K | 1475.5 | 158.5
333.15 K | 1458.4 | 114
338.15 K | 1441.3 | 88.1
343.15 K | 1424.1 | 65.7

[1], 100 kPa, Liquid, Vibrating tube method
Conditions | mass density [kg/m3]
293.15 K | 1032.2
298.15 K | 1028.74
303.15 K | 1025.27
308.15 K | 1021.74
313.15 K | 1018.24
318.15 K | 1014.77
323.15 K | 1011.3
328.15 K | 1007.79
333.15 K | 1004.24
338.15 K | 1000.67
343.15 K | 997.07

[2]
Conditions | refractive index
293.15 K | 1.4823
298.15 K | 1.4809
303.15 K | 1.4794
308.15 K | 1.4781
313.15 K | 1.4766
318.15 K | 1.4753
323.15 K | 1.474
328.15 K | 1.4727
333.15 K | 1.4716
338.15 K | 1.4704
343.15 K | 1.4693

CCCCCCC(=O)[O-].CN(C)C(=[NH2+])N(C)C [1,1,3,3-tetramethylguanidinium heptanoate]
[1], 100 kPa, Liquid
Conditions | speed of sound [m/s] | viscosity [mPa·s]
293.15 K | 1535.5 | 1827
298.15 K | 1517.9 | 1144
303.15 K | 1500.2 | 740.8
308.15 K | 1482.5 | 493.9
313.15 K | 1464.8 | 336.9
318.15 K | 1447.2 | 242.3
323.15 K | 1429.5 | 172.9
328.15 K | 1413.6 | 126.7
333.15 K | 1395.9 | 94.4
338.15 K | 1378.2 | 71.6
343.15 K | 1360.6 | 55.8

[1], 100 kPa, Liquid, Vibrating tube method
Conditions | mass density [kg/m3]
293.15 K | 986.16
298.15 K | 982.69
303.15 K | 979.2
308.15 K | 975.61
313.15 K | 972.09
318.15 K | 968.56
323.15 K | 965
328.15 K | 961.39
333.15 K | 957.74
338.15 K | 954.06
343.15 K | 950.35

[2]
Conditions | refractive index
293.15 K | 1.4792
298.15 K | 1.4776
303.15 K | 1.4759
308.15 K | 1.474
313.15 K | 1.4722
318.15 K | 1.4707
323.15 K | 1.4689
328.15 K | 1.4674
333.15 K | 1.4656
338.15 K | 1.464
343.15 K | 1.4628

CCCCCC(=O)[O-].CN(C)C(=[NH2+])N(C)C [1,1,3,3-tetramethylguanidinium hexanoate]
[1], 100 kPa, Liquid
Conditions | speed of sound [m/s] | viscosity [mPa·s]
293.15 K | 1539 | 1534
298.15 K | 1522.2 | 1001
303.15 K | 1505.5 | 657.8
308.15 K | 1488.8 | 442.1
313.15 K | 1472.1 | 309.8
318.15 K | 1455.4 | 221.1
323.15 K | 1438.7 | 159.5
328.15 K | 1423.6 | 118.5
333.15 K | 1406.9 | 89.4
338.15 K | 1390.2 | 69.3
343.15 K | 1373.5 | 54

[1], 100 kPa, Liquid, Vibrating tube method
Conditions | mass density [kg/m3]
293.15 K | 997.51
298.15 K | 994.1
303.15 K | 990.61
308.15 K | 987.16
313.15 K | 983.73
318.15 K | 980.29
323.15 K | 976.82
328.15 K | 973.32
333.15 K | 969.78
338.15 K | 966.22
343.15 K | 962.63

[2]
Conditions | refractive index
293.15 K | 1.4701
298.15 K | 1.4684
303.15 K | 1.466
308.15 K | 1.4638
313.15 K | 1.4619
318.15 K | 1.4601
323.15 K | 1.458
328.15 K | 1.4563
333.15 K | 1.4544
338.15 K | 1.4528
343.15 K | 1.4511

CN(C)C(=[NH2+])N(C)C.O=C([O-])O [1,1,3,3-tetramethylguanidinium hydrogen carbonate]
Conditions | mass density [kg/m3]
[1], 173 K, 101.33 kPa, Crystal, X-ray diffraction | 1213

CCCCCCCC(=O)[O-].CN(C)C(=[NH2+])N(C)C [1,1,3,3-tetramethylguanidinium octanoate]
[1], 100 kPa, Liquid
Conditions | speed of sound [m/s] | viscosity [mPa·s]
293.15 K | 1497.3 | 1093
298.15 K | 1481.3 | 737.2
303.15 K | 1465.4 | 506.8
308.15 K | 1449.4 | 347.6
313.15 K | 1433.5 | 249.6
318.15 K | 1417.5 | 186.8
323.15 K | 1401.6 | 138.8
328.15 K | 1387.2 | 105.7
333.15 K | 1371.3 | 81.2
338.15 K | 1355.3 | 65
343.15 K | 1339.4 | 52.5

[1], 100 kPa, Liquid, Vibrating tube method
Conditions | mass density [kg/m3]
293.15 K | 969.06
298.15 K | 965.65
303.15 K | 962.28
308.15 K | 958.95
313.15 K | 955.63
318.15 K | 952.3
323.15 K | 948.95
328.15 K | 945.59
333.15 K | 942.23
338.15 K | 938.85
343.15 K | 935.46

[2]
Conditions | refractive index
293.15 K | 1.4678
298.15 K | 1.4657
303.15 K | 1.4631
308.15 K | 1.4612
313.15 K | 1.4589
318.15 K | 1.4565
323.15 K | 1.4544
328.15 K | 1.4523
333.15 K | 1.4501
338.15 K | 1.4482
343.15 K | 1.4463

CCCCC(=O)[O-].CN(C)C(=[NH2+])N(C)C [1,1,3,3-tetramethylguanidinium pentanoate]
[1], 100 kPa, Liquid
Conditions | speed of sound [m/s] | viscosity [mPa·s]
293.15 K | 1540.6 | 1241
298.15 K | 1524.7 | 797.9
303.15 K | 1508.7 | 561.1
308.15 K | 1492.8 | 382.2
313.15 K | 1476.8 | 268.2
318.15 K | 1460.8 | 199.7
323.15 K | 1444.9 | 147.7
328.15 K | 1430.5 | 111.4
333.15 K | 1414.6 | 85.2
338.15 K | 1398.6 | 67.7
343.15 K | 1382.7 | 54

[1], 100 kPa, Liquid, Vibrating tube method
Conditions | mass density [kg/m3]
293.15 K | 1010.3
298.15 K | 1006.9
303.15 K | 1003.4
308.15 K | 1000
313.15 K | 996.64
318.15 K | 993.25
323.15 K | 989.84
328.15 K | 986.42
333.15 K | 982.98
338.15 K | 979.53
343.15 K | 976.07

[2]
Conditions | refractive index
293.15 K | 1.4776
298.15 K | 1.4758
303.15 K | 1.4736
308.15 K | 1.4718
313.15 K | 1.4699
318.15 K | 1.4681
323.15 K | 1.4664
328.15 K | 1.4648
333.15 K | 1.4633
338.15 K | 1.4615
343.15 K | 1.46
